Like-named read-outs stand apart in the source and are kept apart here.
Key:
SERT = experiment: Experiment 5: PET brain imaging of ^11C and ^18F labeled AFM, AFA, AFE in one baboon; type: in vivo; details: one adult male baboon, n = 1 to 4 scans, two-compartment model
Method: (§1) General scanning methods were as described in Huang et al. (2002). Arterial input function was measured and corrected for metabolites.
Activity distributed in the brain in accordance to the known density distribution pattern of SERT (Laruelle et al., 1988). […] Data were analyzed with a two-compartment model, using the metabolite-corrected arterial time-activity curve as input function. This analysis provided the regional distribution volumes (VT, mL/g).
The nonspecific distribution volume, measured as the distribution volume of the cerebellum (a region with negligible SERT density) was in a similar range for all tracers (10 to 30 mL/g, Table 16).
The specific to nonspecific partition coefficient, V3″, was calculated as the ratio of VT in the region of interest (ROI) to cerebellum VT minus one. V3″ provides a measure related to receptor parameters as follows: […]

[1] = Experiment 5: plasma clearance of ^11C and ^18F labeled AFM, AFA, AFE in one baboon; type: in vivo; details: one adult male baboon, n = 1 to 4 scans
Method: as §1

[2] = Biodistribution of labeled radioligands in male Sprague-Dawley rats; type: in vivo; details: mean ± SD, n = 3
Description: Appropriately labeled compounds were studied in animals to assess their binding characteristics in the brain. Procedures for these biodistribution studies are as follows. […] The brain regions (cerebellum, hippocampus, striatum, frontal cortex, thalamus and hypothalamus), along with samples of blood and part of the tail, were removed, weighed, and counted in a Packard Cobra II gamma counter. The percent injected dose (% ID) of the decay- and tail-corrected activity in the brain regions and blood were calculated based upon C-11 standards prepared from the injection solution, and the % ID/g were calculated using the tissue weights.

[3] = biological target: T1, serotonin transporter (SERT) (Rattus norvegicus, UniProt P31652); experiment: In vitro binding affinity for SERT, radioligand [^3H]paroxetine (Table 1); set-up: species or system rat or human (cloned)
T1 construct: membranes prepared from either the rat cortical tissues or cells expressed with cloned-human transporters; from tissue; host or cells: rat cortical tissue membranes (inferred; the alternative is cells expressing cloned human SERT)
Method: (§2) Selected compounds were assayed in vitro for their binding affinity for the dopamine transporter (DAT), serotonin transporter (SERT), and norepinephrine transporter (NET) using membranes prepared from either the rat cortical tissues or cells expressed with cloned-human transporters and radioligands. Radioligands used were [^3H]paroxetine (SERT), [^3H]nisoxetine (NET), and [^3H]GBR12935 (DAT).

[4] = biological target: T2, norepinephrine transporter (NET) (Homo sapiens, UniProt P23975); experiment: In vitro binding affinity for NET, radioligand [^3H]nisoxetine (Table 1); set-up: species or system rat or human (cloned)
T2 construct: host or cells: either rat cortical tissue or cells expressing the cloned human transporter
Method: as §2

[5] = biological target: T3, dopamine transporter (DAT) (Homo sapiens, UniProt Q01959); experiment: In vitro binding affinity for DAT, radioligand [^3H]GBR12935 (Table 1); set-up: species or system rat or human (cloned)
T3 construct: host or cells: either rat cortical tissue or cells expressing the cloned human transporter
Method: as §2

T2 sequence (P23975 whole entry, species assumed): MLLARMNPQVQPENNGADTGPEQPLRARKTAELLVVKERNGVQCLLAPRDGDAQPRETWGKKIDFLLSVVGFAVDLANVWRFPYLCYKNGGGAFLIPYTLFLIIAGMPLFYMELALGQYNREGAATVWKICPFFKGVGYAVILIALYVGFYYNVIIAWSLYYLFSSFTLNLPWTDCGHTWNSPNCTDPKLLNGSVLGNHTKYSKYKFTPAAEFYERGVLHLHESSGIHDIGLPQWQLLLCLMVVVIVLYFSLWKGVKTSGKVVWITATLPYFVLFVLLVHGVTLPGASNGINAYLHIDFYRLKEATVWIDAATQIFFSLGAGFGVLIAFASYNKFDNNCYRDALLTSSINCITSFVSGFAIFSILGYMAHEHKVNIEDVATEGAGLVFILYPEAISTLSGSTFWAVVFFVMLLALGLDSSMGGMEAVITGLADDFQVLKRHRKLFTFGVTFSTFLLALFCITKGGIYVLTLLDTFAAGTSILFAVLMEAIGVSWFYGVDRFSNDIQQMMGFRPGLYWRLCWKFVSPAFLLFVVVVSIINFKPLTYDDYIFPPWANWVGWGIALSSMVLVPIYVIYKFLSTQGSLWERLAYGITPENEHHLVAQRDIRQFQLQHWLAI
T3 sequence (Q01959 whole entry, species assumed): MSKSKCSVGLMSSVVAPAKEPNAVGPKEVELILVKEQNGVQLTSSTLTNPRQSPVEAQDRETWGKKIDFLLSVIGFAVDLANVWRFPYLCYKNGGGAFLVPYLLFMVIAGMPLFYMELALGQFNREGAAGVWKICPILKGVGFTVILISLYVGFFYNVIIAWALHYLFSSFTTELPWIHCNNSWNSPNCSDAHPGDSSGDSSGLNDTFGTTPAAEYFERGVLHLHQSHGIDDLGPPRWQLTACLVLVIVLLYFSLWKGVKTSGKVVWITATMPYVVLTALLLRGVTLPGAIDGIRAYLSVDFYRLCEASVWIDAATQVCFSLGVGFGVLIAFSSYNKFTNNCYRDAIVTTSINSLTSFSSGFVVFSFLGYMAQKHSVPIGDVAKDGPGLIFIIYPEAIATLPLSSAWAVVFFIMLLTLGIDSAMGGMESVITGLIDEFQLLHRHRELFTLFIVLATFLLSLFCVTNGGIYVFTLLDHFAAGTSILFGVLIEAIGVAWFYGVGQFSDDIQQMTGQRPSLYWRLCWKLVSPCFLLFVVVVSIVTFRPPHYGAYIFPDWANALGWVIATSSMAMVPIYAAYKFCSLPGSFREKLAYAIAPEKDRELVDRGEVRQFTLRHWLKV
T1 sequence (P31652 whole entry): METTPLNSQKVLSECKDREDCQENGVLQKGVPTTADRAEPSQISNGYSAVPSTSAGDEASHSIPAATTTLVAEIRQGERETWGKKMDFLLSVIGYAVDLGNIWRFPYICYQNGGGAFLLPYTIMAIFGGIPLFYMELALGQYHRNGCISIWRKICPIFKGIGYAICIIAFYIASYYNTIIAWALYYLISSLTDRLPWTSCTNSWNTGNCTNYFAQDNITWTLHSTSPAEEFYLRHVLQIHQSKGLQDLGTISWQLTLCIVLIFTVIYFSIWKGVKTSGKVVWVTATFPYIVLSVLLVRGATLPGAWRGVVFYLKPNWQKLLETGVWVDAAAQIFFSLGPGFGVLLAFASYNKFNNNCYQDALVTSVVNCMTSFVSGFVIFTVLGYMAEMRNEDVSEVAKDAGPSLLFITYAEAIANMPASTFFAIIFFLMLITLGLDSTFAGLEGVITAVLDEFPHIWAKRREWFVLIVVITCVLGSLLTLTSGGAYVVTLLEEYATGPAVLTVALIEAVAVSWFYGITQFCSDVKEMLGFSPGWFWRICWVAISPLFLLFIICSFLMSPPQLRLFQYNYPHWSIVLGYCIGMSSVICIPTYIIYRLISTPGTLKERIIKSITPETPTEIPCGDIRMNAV

Structure (SMILES) | % ID/g Blood ([2]; 10 min post-injection) | % ID/g Cerebellum ([2]; 10 min post-injection) | % ID/g Frontal Ctx. ([2]; 10 min post-injection) | % ID/g Hippocamp. ([2]; 10 min post-injection) | % ID/g Hypothal. ([2]; 10 min post-injection) | % ID/g Striatum ([2]; 10 min post-injection) | % ID/g Thalamus ([2]; 10 min post-injection) | % ID/g Blood ([2]; 30 min post-injection) | % ID/g Cerebellum ([2]; 30 min post-injection) | % ID/g Frontal Ctx. ([2]; 30 min post-injection) | % ID/g Hippocamp. ([2]; 30 min post-injection) | % ID/g Hypothal. ([2]; 30 min post-injection) | % ID/g Striatum ([2]; 30 min post-injection) | % ID/g Thalamus ([2]; 30 min post-injection) | % ID/g Blood ([2]; 60 min post-injection) | % ID/g Cerebellum ([2]; 60 min post-injection) | % ID/g Frontal Ctx. ([2]; 60 min post-injection) | % ID/g Hippocamp. ([2]; 60 min post-injection) | % ID/g Hypothal. ([2]; 60 min post-injection) | % ID/g Striatum ([2]; 60 min post-injection) | other results
CN([11CH3])Cc1ccccc1Sc1ccc(F)cc1N [[^11C]AFA, [^11C]2-[2-(Dimethylaminomethyl)phenylthio]-5-fluorophenylamine] | 0.26 ± 0.10 % ID/g | 0.35 ± 0.12 % ID/g | 0.70 ± 0.25 % ID/g | 0.48 ± 0.17 % ID/g | 0.55 ± 0.18 % ID/g | 0.54 ± 0.18 % ID/g | 0.60 ± 0.24 % ID/g | 0.08 ± 0.01 % ID/g | 0.14 ± 0.02 % ID/g | 0.49 ± 0.06 % ID/g | 0.34 ± 0.02 % ID/g | 0.47 ± 0.06 % ID/g | 0.38 ± 0.14 % ID/g | 0.44 ± 0.05 % ID/g | 0.06 ± 0.01 % ID/g | 0.09 ± 0.02 % ID/g | 0.29 ± 0.05 % ID/g | 0.24 ± 0.03 % ID/g | 0.42 ± 0.06 % ID/g | 0.26 ± 0.04 % ID/g | Cerebellum V (nonspecific distribution volume) (SERT): 13 ± 3 mL/g; Clearance [1]: 54 ± 6 L/h; % ID/g Thalamus ([2]; 60 min post-injection): 0.39 ± 0.04 % ID/g
Cc1ccc(Sc2ccccc2CN(C)[11CH3])c(N)c1 [[^11C]MADAM, [^11C]2-[2-(Dimethylaminomethyl)phenylthio]-5-methylphenylamine] | 0.61 ± 0.15 % ID/g | 1.04 ± 0.33 % ID/g | 2.17 ± 0.78 % ID/g | 1.39 ± 0.29 % ID/g | 1.93 ± 0.72 % ID/g | 1.57 ± 0.54 % ID/g | 1.95 ± 0.61 % ID/g | 0.26 ± 0.07 % ID/g | 0.55 ± 0.04 % ID/g | 1.78 ± 0.23 % ID/g | 1.14 ± 0.17 % ID/g | 1.48 ± 0.22 % ID/g | 1.41 ± 0.21 % ID/g | 1.66 ± 0.17 % ID/g | 0.15 ± 0.04 % ID/g | 0.27 ± 0.01 % ID/g | 0.89 ± 0.07 % ID/g | 0.84 ± 0.27 % ID/g | 1.39 ± 0.28 % ID/g | 0.81 ± 0.15 % ID/g | % ID/g Thalamus ([2]; 60 min post-injection): 1.14 ± 0.18 % ID/g
CN(C)Cc1ccccc1Sc1ccc(F)cc1N [AFA, 2-(2-(Dimethylaminomethyl)phenylthio)-5-fluorophenylamine] | – | – | – | – | – | – | – | – | – | – | – | – | – | – | – | – | – | – | – | – | Ki ([3]; read-out: Ki SERT): 1.46 nM; Ki [4]: 142 nM; Ki [5]: > 10000 nM
Cc1ccc(Sc2ccccc2CN(C)C)c(N)c1 [MADAM, 2-(2-(Dimethylaminomethyl)phenylthio)-5-methylphenylamine] | – | – | – | – | – | – | – | – | – | – | – | – | – | – | – | – | – | – | – | – | Ki [3]: 1.19 nM; Ki [4]: 320 nM; Ki [5]: > 10000 nM
CN(C)Cc1ccccc1Sc1ccc(CCCF)cc1N [AFP, 2-(2-(Dimethylaminomethyl)phenylthio)-5-(3-fluoropropyl)-phenylamine] | – | – | – | – | – | – | – | – | – | – | – | – | – | – | – | – | – | – | – | – | Ki [3]: 3.58 nM; Ki [4]: 505 nM; Ki [5]: > 10000 nM
CN(C)Cc1ccccc1Sc1ccc([18F])cc1N [[^18F]AFA, [^18F]2-[2-(Dimethylaminomethyl)phenylthio]-5-fluorophenylamine] | 0.27 ± 0.01 % ID/g | 0.38 ± 0.09 % ID/g | 0.81 ± 0.26 % ID/g | 0.54 ± 0.17 % ID/g | 0.73 ± 0.26 % ID/g | 0.65 ± 0.18 % ID/g | 0.72 ± 0.24 % ID/g | 0.16 ± 0.01 % ID/g | 0.20 ± 0.01 % ID/g | 0.65 ± 0.08 % ID/g | 0.48 ± 0.02 % ID/g | 0.66 ± 0.05 % ID/g | 0.58 ± 0.05 % ID/g | 0.69 ± 0.03 % ID/g | 0.09 ± 0.00 % ID/g | 0.07 ± 0.01 % ID/g | 0.28 ± 0.05 % ID/g | 0.23 ± 0.04 % ID/g | 0.38 ± 0.03 % ID/g | 0.26 ± 0.02 % ID/g | Cerebellum V (nonspecific distribution volume) (SERT): 24 mL/g; Clearance [1]: 68 L/h; % ID/g Thalamus ([2]; 60 min post-injection): 0.34 ± 0.05 % ID/g; % ID/g Blood ([2]; 90 min post-injection): 0.08 ± 0.01 % ID/g; % ID/g Cerebellum ([2]; 90 min post-injection): 0.05 ± 0.01 % ID/g; % ID/g Frontal Ctx. ([2]; 90 min post-injection): 0.20 ± 0.02 % ID/g; % ID/g Hippocamp. ([2]; 90 min post-injection): 0.18 ± 0.01 % ID/g; % ID/g Hypothal. ([2]; 90 min post-injection): 0.30 ± 0.06 % ID/g; % ID/g Striatum ([2]; 90 min post-injection): 0.19 ± 0.01 % ID/g; % ID/g Thalamus ([2]; 90 min post-injection): 0.23 ± 0.05 % ID/g; % ID/g Blood ([2]; 120 min post-injection): 0.07 ± 0.01 % ID/g; % ID/g Cerebellum ([2]; 120 min post-injection): 0.04 ± 0.00 % ID/g; % ID/g Frontal Ctx. ([2]; 120 min post-injection): 0.11 ± 0.02 % ID/g; % ID/g Hippocamp. ([2]; 120 min post-injection): 0.10 ± 0.01 % ID/g; % ID/g Hypothal. ([2]; 120 min post-injection): 0.17 ± 0.01 % ID/g; % ID/g Striatum ([2]; 120 min post-injection): 0.11 ± 0.02 % ID/g; % ID/g Thalamus ([2]; 120 min post-injection): 0.16 ± 0.02 % ID/g
CN(C)Cc1ccccc1Sc1ccc(CCF)cc1N [[^11C]AFE, [^11C]2-[2-(Dimethylaminomethyl)phenylthio]-5-fluoroethylphenylamine] | 0.15 ± 0.03 % ID/g | 0.31 ± 0.03 % ID/g | 0.61 ± 0.07 % ID/g | 0.44 ± 0.04 % ID/g | 0.61 ± 0.11 % ID/g | 0.58 ± 0.08 % ID/g | 0.63 ± 0.08 % ID/g | 0.07 ± 0.01 % ID/g | 0.12 ± 0.00 % ID/g | 0.39 ± 0.03 % ID/g | 0.31 ± 0.03 % ID/g | 0.44 ± 0.04 % ID/g | 0.35 ± 0.05 % ID/g | 0.44 ± 0.05 % ID/g | 0.05 ± 0.01 % ID/g | 0.05 ± 0.00 % ID/g | 0.19 ± 0.02 % ID/g | 0.18 ± 0.02 % ID/g | 0.29 ± 0.03 % ID/g | 0.19 ± 0.02 % ID/g | Cerebellum V (nonspecific distribution volume) (SERT): 16 mL/g; Clearance [1]: 73 L/h; % ID/g Thalamus ([2]; 60 min post-injection): 0.22 ± 0.01 % ID/g
CN(C)Cc1ccccc1Sc1ccc(CC[18F])cc1N [[^18F]AFE, [^18F]2-[2-(Dimethylaminomethyl)phenylthio]-5-(2-fluoroethyl)phenylamine] | 0.25 ± 0.01 % ID/g | 0.28 ± 0.02 % ID/g | 0.62 ± 0.08 % ID/g | 0.38 ± 0.03 % ID/g | 0.51 ± 0.05 % ID/g | 0.51 ± 0.05 % ID/g | 0.58 ± 0.08 % ID/g | 0.13 ± 0.03 % ID/g | 0.13 ± 0.01 % ID/g | 0.32 ± 0.01 % ID/g | 0.27 ± 0.04 % ID/g | 0.41 ± 0.03 % ID/g | 0.33 ± 0.01 % ID/g | 0.39 ± 0.01 % ID/g | 0.07 ± 0.02 % ID/g | 0.06 ± 0.01 % ID/g | 0.19 ± 0.04 % ID/g | 0.17 ± 0.04 % ID/g | 0.24 ± 0.04 % ID/g | 0.21 ± 0.05 % ID/g | Cerebellum V (nonspecific distribution volume) (SERT): 19 mL/g; Clearance [1]: 71 L/h; % ID/g Thalamus ([2]; 60 min post-injection): 0.27 ± 0.04 % ID/g; % ID/g Blood ([2]; 90 min post-injection): 0.04 ± 0.01 % ID/g; % ID/g Cerebellum ([2]; 90 min post-injection): 0.03 ± 0.01 % ID/g; % ID/g Frontal Ctx. ([2]; 90 min post-injection): 0.08 ± 0.01 % ID/g; % ID/g Hippocamp. ([2]; 90 min post-injection): 0.09 ± 0.01 % ID/g; % ID/g Hypothal. ([2]; 90 min post-injection): 0.14 ± 0.02 % ID/g; % ID/g Striatum ([2]; 90 min post-injection): 0.10 ± 0.02 % ID/g; % ID/g Thalamus ([2]; 90 min post-injection): 0.17 ± 0.02 % ID/g; % ID/g Blood ([2]; 120 min post-injection): 0.02 ± 0.01 % ID/g; % ID/g Cerebellum ([2]; 120 min post-injection): 0.02 ± 0.00 % ID/g; % ID/g Frontal Ctx. ([2]; 120 min post-injection): 0.06 ± 0.00 % ID/g; % ID/g Hippocamp. ([2]; 120 min post-injection): 0.07 ± 0.00 % ID/g; % ID/g Hypothal. ([2]; 120 min post-injection): 0.10 ± 0.01 % ID/g; % ID/g Striatum ([2]; 120 min post-injection): 0.08 ± 0.01 % ID/g; % ID/g Thalamus ([2]; 120 min post-injection): 0.13 ± 0.02 % ID/g
CN(C)Cc1ccccc1Sc1ccc(CCF)cc1N [AFE, 2-(2-(Dimethylaminomethyl)phenylthio)-5-(2-fluoroethyl)phenylamine] | – | – | – | – | – | – | – | – | – | – | – | – | – | – | – | – | – | – | – | – | Ki [3]: 1.88 nM; Ki [4]: 946 nM; Ki [5]: > 10000 nM
